Measurements from patent publication US20240391862A1, “(1,4,5-TRISUBSTITUTED-1H-PYRAZOL-3-YL)OXY-2-ALKOXY ALKYL ACIDS AND THEIR DERIVATIVES, THEIR SALTS AND THEIR USE AS HERBICIDAL AGENTS” (Bayer AKtiengesellschaft, priority 2021, published 2024).

Experiments:
SETVI = test: Post-emergence herbicidal effect, greenhouse pot test; type: in vivo, Setaria viridis
Summary of the method: (§1)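 Visual % activity scored roughly 3 weeks post-spray against untreated plants, where 100% means death and 0% equals control. Plants were treated at the one-leaf stage, 2 to 3 weeks after sowing in sandy loam, at 20 to 320 g/ha.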

AMARE = test: as above; type: in vivo, Amaranthus retroflexus; conditions: visual rating about 3 weeks after treatment
Summary of the method: as §1

KCHSC = test: as above; type: in vivo
Summary of the method: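 Greenhouse plants in sandy loam, sprayed post-emergence at the one-leaf stage (2–3 weeks after sowing) with WP or EC formulations in water plus 0.5% additive at 600 l/ha. Rates 20 to 320 g/ha. Activity rated visually after about 3 weeks against untreated controls (0% like control, 100% dead).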

MATIN = test: as above; type: in vivo, Tripleurospermum inodorum
Summary of the method: as §1

VERPE = test: as above; type: in vivo, Veronica persica
Summary of the method: as §1

ABUTH = test: as above; type: in vivo, Abutilon theophrasti; conditions: visual rating about 3 weeks after treatment
Summary of the method: as §1

ZEAMX = test: Post-emergence herbicidal effect and crop plant compatibility, greenhouse pot test; type: in vivo, Zea mays; conditions: one-leaf stage, rated visually after about 3 weeks vs untreated controls
Summary of the method: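 Greenhouse pot test: weeds and crops sown in sandy loam, sprayed post-emergence at one-leaf stage (2–3 weeks after sowing) with WP or EC formulations plus 0.5% additive at 600 l/ha water, rates 20–320 g/ha. Visual rating about 3 weeks later versus untreated controls (100% = dead, 0% = as control).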

ALOMY = test: Post-emergence herbicidal effect, greenhouse pot test; type: in vivo, Alopecurus myosuroides; conditions: visual rating about 3 weeks after treatment
Summary of the method: as §1

DIGSA = test: as above; type: in vivo, Digitaria sanguinalis; conditions: visual rating about 3 weeks after treatment
Summary of the method: as §1

POLCO = test: as above; type: in vivo, Fallopia convolvulus
Summary of the method: as §1

LOLRI = test: as above; type: in vivo, Lolium rigidum
Summary of the method: as §1

VIOTR = test: as above; type: in vivo, Viola tricolor
Summary of the method: as §1

PHBPU = test: as above; type: in vivo, Ipomoea purpurea
Summary of the method: as §1

AVEFA = test: as above; type: in vivo, Avena fatua; conditions: visual rating about 3 weeks after treatment
Summary of the method: as §1

ECHCG = test: as above; type: in vivo, Echinochloa crus-galli
Summary of the method: as §1

[1] = Amaranthus retroflexus, 504 h, 320 g/ha, read-out: Post-emergence effect against AMARE
[2] = 504 h, read-out: Post-emergence effect against KCHSC in %

COC(=O)CCOC(=O)C(OC)Oc1nn(-c2ccccc2F)c(-c2ccc(F)nc2)c1C1CC1 (single isomer, unassigned) [Example I-74]
90%: Post-emergence effect against SETVI in % (SETVI; 80 g/ha) | Post-emergence effect against SETVI in % (SETVI; 320 g/ha) | Post-emergence effect against KCHSC in % (KCHSC; 320 g/ha) | Post-emergence effect against VERPE in % (VERPE; 80 g/ha) | Post-emergence effect against VERPE in % (VERPE; 320 g/ha) | Post-emergence effect against ABUTH (ABUTH; 320 g/ha) | Post-emergence effect against ALOMY (ALOMY; 320 g/ha) | Post-emergence effect against DIGSA (DIGSA; 320 g/ha) | Post-emergence effect against POLCO in % (POLCO; 320 g/ha) | Post-emergence effect against LOLRI in % (LOLRI; 320 g/ha) | Post-emergence effect against VIOTR in % (VIOTR; 80 g/ha) | Post-emergence effect against VIOTR in % (VIOTR; 320 g/ha) | Post-emergence effect against PHBPU in % (PHBPU; 80 g/ha) | Post-emergence effect against PHBPU in % (PHBPU; 320 g/ha) | Post-emergence effect against AVEFA (AVEFA; 80 g/ha) | Post-emergence effect against AVEFA (AVEFA; 320 g/ha) | Post-emergence effect against ECHCG (ECHCG; 20 g/ha, visual rating about 3 weeks after treatment) | Post-emergence effect against ECHCG in % (ECHCG; 80 g/ha) | Post-emergence effect against ECHCG in % (ECHCG; 320 g/ha)
0%: Post-emergence effect at 20 g/ha against ZEAMX in % (ZEAMX)
80%: Post-emergence effect against AMARE (AMARE; 20 g/ha) | Post-emergence effect against AMARE (AMARE; 80 g/ha) | Post-emergence effect against AMARE (AMARE; 320 g/ha) | Post-emergence effect against MATIN in % (MATIN; 80 g/ha) | Post-emergence effect against MATIN in % (MATIN; 320 g/ha) | Post-emergence effect against ABUTH (ABUTH; 20 g/ha) | Post-emergence effect against ABUTH (ABUTH; 80 g/ha) | Post-emergence effect against DIGSA (DIGSA; 80 g/ha) | Post-emergence effect against VIOTR in % (VIOTR; 20 g/ha) | Post-emergence effect against PHBPU in % (PHBPU; 20 g/ha)

COC(=O)CCOC(=O)C(OC)Oc1nn(-c2ccccc2F)c(-c2ccc(F)nc2)c1C1CC1 (single isomer, unassigned) [Example I-75]
0%: Post-emergence effect at 20 g/ha against ZEAMX in % (ZEAMX) | Post-emergence effect at 80 g/ha against ZEAMX in % (ZEAMX)
80%: Post-emergence effect against SETVI in % (SETVI; 80 g/ha) | Post-emergence effect against MATIN in % (MATIN; 80 g/ha) | Post-emergence effect against MATIN in % (MATIN; 320 g/ha) | Post-emergence effect against VERPE in % (VERPE; 80 g/ha) | Post-emergence effect against ABUTH (ABUTH; 20 g/ha) | Post-emergence effect against ABUTH (ABUTH; 80 g/ha) | Post-emergence effect against ALOMY (ALOMY; 320 g/ha) | Post-emergence effect against DIGSA (DIGSA; 80 g/ha) | Post-emergence effect against DIGSA (DIGSA; 320 g/ha) | Post-emergence effect against POLCO in % (POLCO; 320 g/ha) | Post-emergence effect against LOLRI in % (LOLRI; 80 g/ha) | Post-emergence effect against VIOTR in % (VIOTR; 80 g/ha) | Post-emergence effect against PHBPU in % (PHBPU; 80 g/ha)
90%: Post-emergence effect against SETVI in % (SETVI; 320 g/ha) | Post-emergence effect against AMARE (AMARE; 320 g/ha) | Post-emergence effect against KCHSC in % (KCHSC; 320 g/ha) | Post-emergence effect against VERPE in % (VERPE; 320 g/ha) | Post-emergence effect against ABUTH (ABUTH; 320 g/ha) | Post-emergence effect against LOLRI in % (LOLRI; 320 g/ha) | Post-emergence effect against VIOTR in % (VIOTR; 320 g/ha) | Post-emergence effect against PHBPU in % (PHBPU; 320 g/ha) | Post-emergence effect against AVEFA (AVEFA; 320 g/ha) | Post-emergence effect against ECHCG in % (ECHCG; 80 g/ha) | Post-emergence effect against ECHCG in % (ECHCG; 320 g/ha)

COC(Oc1nn(-c2ncccc2F)c(-c2ccc(F)nc2)c1C1CC1)C(=O)O (stereo not drawn) [Example I-90]
80%: pest or weed control at 320 g/ha (AMARE; [1]) | pest or weed control at 20 g/ha (KCHSC; [2]) | Post-emergence effect against VERPE in % (VERPE; 320 g/ha) | Post-emergence effect against DIGSA (DIGSA; 320 g/ha) | Post-emergence effect against POLCO in % (POLCO; 320 g/ha)
0%: Post-emergence effect at 20 g/ha against ZEAMX in % (ZEAMX) | Post-emergence effect at 80 g/ha against ZEAMX in % (ZEAMX) | Post-emergence effect at 320 g/ha against ZEAMX in % (ZEAMX; 320 g/ha)
90%: Post-emergence effect against SETVI in % (SETVI; 320 g/ha) | Post-emergence effect against KCHSC in % (KCHSC; 320 g/ha) | pest or weed control at 80 g/ha (KCHSC; [2]) | Post-emergence effect against ABUTH (ABUTH; 320 g/ha) | Post-emergence effect against ALOMY (ALOMY; 320 g/ha) | Post-emergence effect against LOLRI in % (LOLRI; 320 g/ha) | Post-emergence effect against VIOTR in % (VIOTR; 320 g/ha) | Post-emergence effect against PHBPU in % (PHBPU; 320 g/ha) | Post-emergence effect against AVEFA (AVEFA; 320 g/ha) | Post-emergence effect against ECHCG in % (ECHCG; 80 g/ha) | Post-emergence effect against ECHCG in % (ECHCG; 320 g/ha)

CCOC(=O)C(OC)Oc1nn(-c2ncccc2F)c(-c2cncc(F)c2)c1C1CC1 (stereo not drawn) [Example I-113]
90%: pest or weed control at 20 g/ha (SETVI; Setaria viridis, 504 h, 20 g/ha, read-out: Post-emergence effect against SETVI in %) | pest or weed control at 80 g/ha (SETVI; Setaria viridis, 504 h, 80 g/ha, read-out: Post-emergence effect against SETVI in %) | pest or weed control at 320 g/ha (SETVI; Setaria viridis, 504 h, 320 g/ha, read-out: Post-emergence effect against SETVI in %) | pest or weed control at 20 g/ha (KCHSC; [2]) | pest or weed control at 80 g/ha (KCHSC; [2]) | pest or weed control at 320 g/ha (KCHSC; 504 h, 320 g/ha, read-out: Post-emergence effect against KCHSC in %) | pest or weed control at 80 g/ha (VERPE; Veronica persica, 504 h, 80 g/ha, read-out: Post-emergence effect against VERPE in %) | pest or weed control at 320 g/ha (VERPE; Veronica persica, 504 h, 320 g/ha, read-out: Post-emergence effect against VERPE in %) | pest or weed control at 20 g/ha (ABUTH; Abutilon theophrasti, 504 h, 20 g/ha, read-out: Post-emergence effect against ABUTH) | pest or weed control at 80 g/ha (ABUTH; Abutilon theophrasti, 504 h, 80 g/ha, read-out: Post-emergence effect against ABUTH) | pest or weed control at 320 g/ha (ABUTH; Abutilon theophrasti, 504 h, 320 g/ha, read-out: Post-emergence effect against ABUTH) | pest or weed control at 320 g/ha (DIGSA; Digitaria sanguinalis, 504 h, 320 g/ha, read-out: Post-emergence effect against DIGSA) | pest or weed control at 80 g/ha (LOLRI; Lolium rigidum, 504 h, 80 g/ha, read-out: Post-emergence effect against LOLRI in %) | pest or weed control at 20 g/ha (VIOTR; Viola tricolor, 504 h, 20 g/ha, read-out: Post-emergence effect against VIOTR in %) | pest or weed control at 80 g/ha (VIOTR; Viola tricolor, 504 h, 80 g/ha, read-out: Post-emergence effect against VIOTR in %) | pest or weed control at 320 g/ha (VIOTR; Viola tricolor, 504 h, 320 g/ha, read-out: Post-emergence effect against VIOTR in %) | pest or weed control at 20 g/ha (PHBPU; Ipomoea purpurea, 504 h, 20 g/ha, read-out: Post-emergence effect against PHBPU in %) | pest or weed control at 80 g/ha (PHBPU; Ipomoea purpurea, 504 h, 80 g/ha, read-out: Post-emergence effect against PHBPU in %) | pest or weed control at 20 g/ha (ECHCG; Echinochloa crus-galli, 504 h, 20 g/ha, visual rating about 3 weeks after treatment, read-out: Post-emergence effect against ECHCG) | pest or weed control at 80 g/ha (ECHCG; Echinochloa crus-galli, 504 h, 80 g/ha, read-out: Post-emergence effect against ECHCG in %) | pest or weed control at 320 g/ha (ECHCG; Echinochloa crus-galli, 504 h, 320 g/ha, read-out: Post-emergence effect against ECHCG in %)
100%: pest or weed control at 80 g/ha (ALOMY; Alopecurus myosuroides, 504 h, 80 g/ha, read-out: Post-emergence effect against ALOMY) | pest or weed control at 320 g/ha (ALOMY; Alopecurus myosuroides, 504 h, 320 g/ha, read-out: Post-emergence effect against ALOMY) | pest or weed control at 320 g/ha (LOLRI; Lolium rigidum, 504 h, 320 g/ha, read-out: Post-emergence effect against LOLRI in %) | pest or weed control at 320 g/ha (PHBPU; Ipomoea purpurea, 504 h, 320 g/ha, read-out: Post-emergence effect against PHBPU in %) | pest or weed control at 80 g/ha (AVEFA; Avena fatua, 504 h, 80 g/ha, read-out: Post-emergence effect against AVEFA) | pest or weed control at 320 g/ha (AVEFA; Avena fatua, 504 h, 320 g/ha, read-out: Post-emergence effect against AVEFA)
80%: pest or weed control at 20 g/ha (AMARE; Amaranthus retroflexus, 504 h, 20 g/ha, read-out: Post-emergence effect against AMARE) | pest or weed control at 80 g/ha (AMARE; Amaranthus retroflexus, 504 h, 80 g/ha, read-out: Post-emergence effect against AMARE) | pest or weed control at 320 g/ha (AMARE; [1]) | pest or weed control at 80 g/ha (MATIN; Tripleurospermum inodorum, 504 h, 80 g/ha, read-out: Post-emergence effect against MATIN in %) | pest or weed control at 320 g/ha (MATIN; Tripleurospermum inodorum, 504 h, 320 g/ha, read-out: Post-emergence effect against MATIN in %) | pest or weed control at 20 g/ha (VERPE; Veronica persica, 504 h, 20 g/ha, read-out: Post-emergence effect against VERPE in %) | pest or weed control at 80 g/ha (POLCO; Fallopia convolvulus, 504 h, 80 g/ha, read-out: Post-emergence effect against POLCO in %) | pest or weed control at 320 g/ha (POLCO; Fallopia convolvulus, 504 h, 320 g/ha, read-out: Post-emergence effect against POLCO in %) | pest or weed control at 20 g/ha (AVEFA; Avena fatua, 504 h, 20 g/ha, read-out: Post-emergence effect against AVEFA)
